Measurements taken from ChEMBL document CHEMBL1141949, “In silico fragment-based discovery of indolin-2-one analogues as potent DNA gyrase inhibitors” (Bioorg Med Chem Lett, 2005).

Target: DNA gyrase (Escherichia coli) (UniProt P0AES6+P0AES4)
Experiment: In vitro activity against Escherichia coli DNA gyrase supercoiling
Assay type: protein-complex assay

Row | Structure (SMILES) | MNEC
1 | Oc1[nH]c2ccccc2c1/N=N/c1n[nH]c2c3ccccc3nc-2n1 | > 100 µM
2 | O=C(/N=N/c1c(O)[nH]c2ccc(Br)cc12)c1ccncc1 | > 100 µM
3 | O=C1Nc2ccccc2/C1=C/c1c[nH]c(-c2ccccc2)n1 | > 100 µM
4 | O=C1Nc2ccccc2/C1=N/c1ccc(C(F)(F)F)cc1 | > 100 µM
5 | CCCCc1nc(/C=C2\C(=O)Nc3ccccc32)c[nH]1 | 50 µM
6 | O=C1Nc2ccccc2/C1=C/c1ccc([N+](=O)[O-])cc1 | > 100 µM
7 | O=C1Nc2ccccc2/C1=C/c1ccccc1N1CCOCC1 | > 100 µM
8 | CCc1nc(C)c(/C=C2\C(=O)Nc3ccccc32)[nH]1 | 25 µM
9 | O=C1N=C(N2CCOCC2)S/C1=C1\C(=O)Nc2ccccc21 | > 100 µM
10 | Cc1ccc2c(c1)/C(=N/N=C/c1c(O)ccc3ccccc13)C(=O)N2 | > 100 µM
11 | CCc1nc(/C=C2\C(=O)Nc3ccccc32)c[nH]1 | < 100 µM
12 | O=C1Nc2ccccc2/C1=C/c1c[nH]c2cc([N+](=O)[O-])ccc12 | > 100 µM
13 | O=C1Nc2ccccc2/C1=C/c1cnc[nH]1 | 100 µM
14 | O=C1Nc2ccccc2/C1=C/c1c[nH]nc1-c1cccs1 | > 100 µM
15 | O=C1Nc2ccccc2/C1=C/c1cccnc1 | > 100 µM
16 | Cc1[nH]c2ccccc2c1/C=C1\C(=O)Nc2ccccc21 | > 100 µM
